# Source: ChEMBL document CHEMBL1909526, “Berkeleyones and related meroterpenes from a deep water acid mine waste fungus that inhibit the production of interleukin 1-β from induced inflammasomes” (J Nat Prod, 2011)
# Target: T1, Caspase-1 (Homo sapiens) (UniProt P29466)
# T1 sequence (whole entry): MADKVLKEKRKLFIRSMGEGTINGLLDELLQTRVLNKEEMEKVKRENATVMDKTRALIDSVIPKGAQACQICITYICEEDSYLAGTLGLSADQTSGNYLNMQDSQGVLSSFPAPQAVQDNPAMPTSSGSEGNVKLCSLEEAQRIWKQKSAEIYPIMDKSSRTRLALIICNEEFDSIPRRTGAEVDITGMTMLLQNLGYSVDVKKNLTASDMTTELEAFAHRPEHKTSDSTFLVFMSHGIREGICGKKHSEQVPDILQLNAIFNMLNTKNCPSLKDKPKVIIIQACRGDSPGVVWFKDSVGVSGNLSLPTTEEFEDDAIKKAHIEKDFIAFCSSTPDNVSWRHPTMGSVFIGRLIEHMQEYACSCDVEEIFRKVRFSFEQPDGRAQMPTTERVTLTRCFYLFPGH
# Assay: Inhibition of caspase1 in differentiated human THP-1 cells at 100 ug/ml after 24 hrs by fluorometric assay
# Format: cell-based
row,inhibition,Compound
1,100%,C=C1[C@@]2(C)C[C@@H]3[C@](C)(CC=C4C(C)(C)OC(=O)CC[C@]43C)[C@]1(C(=O)OC)C(=O)[C@@](C)(O)C2=O
2,68%,C=C1[C@@]2(C)C[C@H]3[C@]4(C)CC[C@@H](O)C(C)(C)[C@H]4CC[C@]3(C)[C@]1(C(=O)OC)C(=O)[C@@](C)(O)C2=O
3,97%,C=C1[C@@]2(C)C[C@H]3[C@]4(C)CCC(=O)C(C)(C)[C@H]4CC[C@]3(C)[C@]1(C(=O)OC)C(=O)[C@@](C)(O)C2=O
4,89%,C=C1[C@@]2(C)C[C@H]3C(C)=C4CC(=O)OC(C)(C)C4=CC[C@]3(C)[C@]1(C(=O)OC)C(=O)[C@@](C)(O)C2=O
5,0%,C=C(C)C1=CC[C@@]2(C)[C@@H](C[C@]3(C)C(=C)[C@@]2(C(=O)OC)C(=O)[C@@](C)(O)C3=O)[C@]1(C)CCC(=O)O

row,Compound,inhibition
1,C=C1[C@@]2(C)C[C@H]3[C@]4(C)CCC(=O)OC(C)(C)[C@@H]4CC[C@]3(C)[C@]1(C(=O)OC)C(=O)[C@@](C)(O)C2=O,77%

# Target: T1, Caspase-1 (Homo sapiens)
# Assay: Inhibition of caspase1 in differentiated human THP-1 cells at 0.0005 ug/ml after 24 hrs by fluorometric assay
# Format: cell-based
row,inhibition,Compound
1,100%,CC(=O)N[C@@H](Cc1ccc(O)cc1)C(=O)N[C@H](C(=O)N[C@@H](C)C(=O)N[C@H](C=O)CC(=O)O)C(C)C
